Reference: publication PMC12775653, “Quantitative dynamic granzyme B PET imaging to characterize novel combination immunotherapy response in preclinical glioblastoma models” (Theranostics, 2026)
* marks the point of attachment. NOTA = O=C(O)CN1CCN(CC(=O)O)CCN(CC(=O)*)CC1

Biological target: T1, granzyme B (Mus musculus, UniProt P04187)
T1 construct: from tissue; host or cells: intracranial GSC005-luc tumour in C57BL/6 mice; granzyme B comes from the host's cytotoxic immune cells
T1 sequence (P04187 21-247): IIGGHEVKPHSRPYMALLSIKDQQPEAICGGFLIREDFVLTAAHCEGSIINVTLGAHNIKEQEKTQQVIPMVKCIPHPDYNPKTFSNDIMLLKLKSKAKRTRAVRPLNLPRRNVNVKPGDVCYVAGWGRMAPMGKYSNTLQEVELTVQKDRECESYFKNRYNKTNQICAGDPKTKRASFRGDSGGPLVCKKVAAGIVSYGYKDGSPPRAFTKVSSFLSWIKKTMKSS
Type: in vivo, mouse (C57BL/6, orthotopic GSC005-luc GBM)
Source text: Dynamic [^64Cu]-NOTA-GZP PET was collected using a preclinical small animal PET/CT imaging system (GNEXT, Sofie Bioscience, Culver City, CA) seven days from the start of therapy. Scan consisted of an 80-min list-mode acquisition, with 100 ± 10 μCi (3.7 ± 0.37 MBq) of [^64Cu]-NOTA-GZP being administered via tail-vein catheter followed by a saline flush. Subsequently, a 5-min computed tomography (CT, voltage, 80 kVp; current, 150 μA) scan was collected for anatomical reference. A subset of mice (N = 5 treatment, 3 controls) was humanely euthanized, and brains were excised for a 1 h ex vivo PET/CT brain scan and, upon completion, placed in formalin and fixed overnight. Remaining mice were monitored longitudinally for survival.
Dynamic PET data was reconstructed using a 3D ordered-subset expectation maximization algorithm (24 subsets, 3 iterations) with a reconstructed voxel size of 0.5 × 0.5 × 0.5 mm^3 based on a 12 × 10 s, 6 × 30 s, 5 × 60 s, 10 × 300 s, 1 × 1200 s framing sequence (Figure 2A). PET sequences were rigidly registered to the reference anatomical CT scan. Voxel-wise conversion to standardized uptake value (SUV) was then performed based on the following equation:
GSC005-luc orthotopic mouse models were developed and treated with single dose M002 followed by a dose of anti-PD1 on days 1, 4 and 7 (N = 22), or saline at similar timepoints (N = 9). 80-min dynamic [^64Cu]-NOTA-GZP PET/CT scans were performed at day 4 and 7 following treatment, with tumor and contralateral brain time activity curves being fitted to a 2TCM as selected based on prior comparative assessment. Metrics for average SUV, k1, k2, k3 and k4 were quantified on the tumor region with additional normalization to contralateral healthy brain (TBR).
In addition, anatomical MRI scans were collected prior to the start of treatment (D-1), and at days 3, 6 and 13 following treatment for anatomical PET/CT reference and monitoring of tumor volumes. Longitudinal monitoring was performed via BLI every three days. […] Response was defined based on a threshold of less than 20% increase in BLI signal one month following initial immunotherapy administration as previously reported.

For “{NOTA}-AGGIEFD-aldehyde [[^64Cu]-NOTA-GZP, NOTA-Ala-Gly-Gly-Ile-Glu-Phe-Asp-CHO (NOTA-GZP) radiolabeled with ^64Cu; granzyme B specific PET imaging agent]”, the “k3 (tracer binding rate), contralateral brain” value (2TCM, combination immunotherapy-treated mice, four days following therapy, contralateral brain) was 0.04 ± 0.05 min⁻¹, the “k3 (tracer binding rate), tumor” value (2TCM, combination immunotherapy-treated mice, four days following therapy, tumor) was 0.13 ± 0.8 min⁻¹ and the “SUV TBR” value (mouse, in vivo) was 2.50 ± 1.68. It also gave a k1 TBR (mouse, in vivo) of 1.18 ± 0.75.
